What was measured:
[1] = tested on: p21, p16, IL-1a, CXCL-1, IL-6, IL-8 expression in senescent IMR90 cells; assay: qPCR of senescence markers and SASP factors in irradiated senescent IMR90 cells treated with Nutlin-3a; type: cell-based, human
Procedure: Primary human fibroblast (IMR90) cells were induced to senesce by applying 10 Gy of irradiation. Seven days after irradiation (Day 0), cells were treated with 10 μM Nutlin-3a or vehicle (DMSO) for nine days (Day 9). The drug or vehicle was refreshed every three days. Drug/vehicle was removed at Day 9 and the cells were cultured for an additional three days (Day 12) in media without drug or DMSO. Cells were then collected, mRNA extracted, and cDNA prepared. Quantitative PCR (qPCR) was then performed to detect expression of various genes. Cells were also collected at Day 12 after drug/vehicle had been removed for three days. The data are presented as an average of three samples. Data were normalized to actin and depicted as a ratio to non-senescent cells.

[2] = tested on: LDLR−/−/3MR double transgenic mice; assay: Atherosclerosis model, LDLR-/-/3MR mice, 100 day ganciclovir treatment period; type: in vivo, mouse
Procedure: The impact of clearance of senescent cells on the stability and size of mature atherosclerotic plaques was studied in LDLR^−/− MR double transgenic mice. From 10 weeks of age, LDLR^−/− MR double transgenic mice (10 weeks) and LDLR^−/− single transgenic mice (control) were fed a high fat diet (Harlan Teklad TD.88137) having 42% calories from fat beginning at Week 0 until Week 12.5, when the mice were switched to normal chow diet. Both groups of mice were treated with ganciclovir from week 12.5 over the next 100 days, with each treatment cycle comprising 5 days of ganciclovir (25 mg/kg intraperitoneally daily) and 14 days off. At the end of the 100 day treatment period, the mice were sacrificed, plasma and tissues were collected, and atherosclerosis was quantitated. Descending aortas were dissected and stained with Sudan IV to visualize the plaque lipids. […] Plaques from ganciclovir-treated LDLR^−/− control and LDLR^−/− MR mice (see dashed circled plaques in FIGS. 55A-B, respectively) were harvested and cut into cross-sections and stained with […] the general architecture of the atherosclerotic plaques. “#” indicates fat located on the outside of the aorta (see FIG. 55A). The plaques marked with an “*” and “*” in FIGS. 55A and B, respectively, are shown as stained cross-sections in FIGS. 55B and D, respectively. […] The plaque from the control mice has identifiable “lipid pockets” accumulating within. […] Disruption or tear in the cap of a lipid-rich plaque is a trigger for coronary events through exposure of plaque thrombogenic components to platelets and clotting components of the blood. Plaques that grow more rapidly as a result of rapid lipid deposition and have thin fibrin caps are prone to rupture. Slowly growing plaques with mature fibrin caps tend to stabilize and are not prone to rupture. Taken together, these experiments indicate that removal of senescent cells may affect atherosclerotic plaque architecture and have a stabilizing effect.

SMILES | level of p21 mRNA, ratio to non-senescent cells ([1]; 10 μM, day 9) | level of IL-1a mRNA ([1]; 10 μM, day 9 and day 12) | levels of CXCL-1, IL-6 and IL-8 mRNA ([1]; 10 μM, day 9 and day 12) | level of p16 mRNA ([1]; 10 μM, drug present (day 9)) | level of p16 mRNA ([1]; day 12, three days after drug removal) | % of the aorta covered in plaques ([2]; area of Sudan IV staining, versus LDLR−/− control mice) | atherosclerotic plaques in descending aorta (Sudan IV staining) ([2]; cycles of 5 days 25 mg/kg ip daily, 14 days off, 100 days) | plaque morphology ([2]; stained cross-sections)
COc1ccc(C2=N[C@@H](c3ccc(Cl)cc3)[C@@H](c3ccc(Cl)cc3)N2C(=O)N2CCNC(=O)C2)c(OC(C)C)c1 [Nutlin-3a] | approximately 90 fold | decreased only after Nutlin-3a had been removed | reduced when Nutlin-3a was present and remained lower after drug removal | did not change | decrease |  |  | 
Nc1nc(O)c2ncn(COC(CO)CO)c2n1 [ganciclovir] |  |  |  |  |  | significantly lower | fewer atherosclerotic plaques with less intense staining | presence of a thick fibrin cap and the absence of lipid pockets
